Results: paper PMC9822396 (Molecules, 2022)
Where “and” joins values, the source holds several entries; their conditions need not be identical. Equal entries are not always repeated. Entries after “also recorded” stand apart in the source; their conditions may differ.

Tests used:
SH-SY5Y cells = test: Cytotoxicity, CCK-8 cell viability, SH-SY5Y; format: cell-based, human; details: neuroblastoma, 24 h
Source text: (§1) Dimethyl sulfoxide (DMSO) and 2-mercaptoethanol (2-ME) were obtained from Sigma Aldrich. Cell counting kit-8 (CCK-8) was obtained from Dojindo Laboratories (Kumamoto, Japan). Madin-Darby canine kidney (MDCK; KCLB 10034) cells, human acute promyelocytic leukemia (HL-60; KCLB 10240) cells, and human neuroblastoma cells (SH-SY5Y; KCLB 22266) were purchased from the Korean Cell Line Bank (KCLB, Seoul, Republic of Korea).
(§2) Passages were used between 10 and 30. Following trypsinization, MDCK (1 × 10^4), HL-60 (5 × 10^4), and SH-SY5Y (5 × 10^4) cells were seeded in 96-well plates and treated with 1, 3, 10, 30 and 50 µM of each inhibitor. The plates were then incubated for 24 h at 37 °C with 5% CO2, and cell viability was determined by the CCK-8 and by measuring the optical density at 450 nm using a microplate reader (Versa Max, Molecular Devices, Sunnyvale, CA, USA). The cell viability was expressed as % by comparing the absorbance of the sample to that of the control. Statistical differences between groups were analyzed by ANOVA using IBM SPSS statistics 27 and probability values (p-values) less than 0.05 were marked as significant values.

[1] = Cytotoxicity, CCK-8 cell viability, SH-SY5Y; format: cell-based, human; details: human, 30 µM
Source text: as §1, §2

hMAO-B [2] = target: T1, hMAO-B (Homo sapiens, UniProt P27338); test: Kinetics of hMAO-B inhibition (Lineweaver-Burk and secondary plots); format: biochemical; details: for Inhibition type hMAO-B: Lineweaver-Burk plots; for Ki: secondary plots of Lineweaver-Burk slopes
T1 construct: purchased Sigma-Aldrich
T1 sequence (P27338 1-520): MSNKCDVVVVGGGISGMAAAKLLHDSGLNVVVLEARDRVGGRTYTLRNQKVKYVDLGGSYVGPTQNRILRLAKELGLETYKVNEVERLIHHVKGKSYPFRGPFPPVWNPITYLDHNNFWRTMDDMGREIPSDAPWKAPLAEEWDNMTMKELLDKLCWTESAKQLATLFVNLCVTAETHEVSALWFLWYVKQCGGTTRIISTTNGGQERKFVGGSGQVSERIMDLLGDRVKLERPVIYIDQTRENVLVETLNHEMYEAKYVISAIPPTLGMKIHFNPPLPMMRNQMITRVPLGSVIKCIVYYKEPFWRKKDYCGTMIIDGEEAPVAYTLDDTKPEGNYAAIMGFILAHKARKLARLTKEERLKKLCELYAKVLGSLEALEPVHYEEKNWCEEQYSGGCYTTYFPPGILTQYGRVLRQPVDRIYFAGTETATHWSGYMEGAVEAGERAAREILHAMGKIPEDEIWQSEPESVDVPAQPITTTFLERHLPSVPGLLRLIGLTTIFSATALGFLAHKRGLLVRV

BChE = target: T2, BChE (Equus caballus, UniProt P81908); test: BChE inhibition (Ellman method); format: biochemical, equine; details: read-out: Residual Activity at 10 µM (%) BChE
T2 construct: BChE from equine serum; purchased Sigma-Aldrich; host or cells: equine serum
T2 sequence (P81908 whole entry): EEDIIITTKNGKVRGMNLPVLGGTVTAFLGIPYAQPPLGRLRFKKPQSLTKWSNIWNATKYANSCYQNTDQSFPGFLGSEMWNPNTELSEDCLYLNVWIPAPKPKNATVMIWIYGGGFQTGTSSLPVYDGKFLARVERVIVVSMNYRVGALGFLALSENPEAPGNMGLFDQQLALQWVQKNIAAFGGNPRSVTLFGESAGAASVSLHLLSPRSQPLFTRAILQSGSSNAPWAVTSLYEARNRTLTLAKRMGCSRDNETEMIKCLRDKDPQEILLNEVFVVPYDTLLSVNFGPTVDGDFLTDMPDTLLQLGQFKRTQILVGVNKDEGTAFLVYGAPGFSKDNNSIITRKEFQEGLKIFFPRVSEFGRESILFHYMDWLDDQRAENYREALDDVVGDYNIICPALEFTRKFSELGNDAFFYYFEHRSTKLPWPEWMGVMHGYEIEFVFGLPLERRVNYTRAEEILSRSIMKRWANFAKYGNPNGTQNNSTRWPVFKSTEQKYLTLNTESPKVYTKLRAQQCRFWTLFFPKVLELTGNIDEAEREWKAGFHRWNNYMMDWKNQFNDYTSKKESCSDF
Procedure: (§3) All other chemicals were of reagent grade.
(§4) hMAO-A and -B activities were determined using a continuous spectrophotometric method, as described previously. […] AChE and BChE activities were assayed as described by Ellman et al., with slight modification. Reactions were performed using AChE and BChE in the 0.5 mL reaction mixtures including 0.5 mM substrate (ATCI and BTCI, respectively) and color reagent (DTNB). […] Reaction rates are expressed as changes in absorbance per min.. Inhibitory activities of AChE and BChE were measured after preincubating enzyme with inhibitors for 15 min before adding DTNB and each substrate. […]

AChE = target: T3, AChE (Electrophorus electricus, UniProt O42275); test: AChE inhibition (Ellman method); format: biochemical; details: read-out: Residual Activity at 10 µM (%) AChE
T3 construct: purchased Sigma-Aldrich
T3 sequence (O42275 24-633): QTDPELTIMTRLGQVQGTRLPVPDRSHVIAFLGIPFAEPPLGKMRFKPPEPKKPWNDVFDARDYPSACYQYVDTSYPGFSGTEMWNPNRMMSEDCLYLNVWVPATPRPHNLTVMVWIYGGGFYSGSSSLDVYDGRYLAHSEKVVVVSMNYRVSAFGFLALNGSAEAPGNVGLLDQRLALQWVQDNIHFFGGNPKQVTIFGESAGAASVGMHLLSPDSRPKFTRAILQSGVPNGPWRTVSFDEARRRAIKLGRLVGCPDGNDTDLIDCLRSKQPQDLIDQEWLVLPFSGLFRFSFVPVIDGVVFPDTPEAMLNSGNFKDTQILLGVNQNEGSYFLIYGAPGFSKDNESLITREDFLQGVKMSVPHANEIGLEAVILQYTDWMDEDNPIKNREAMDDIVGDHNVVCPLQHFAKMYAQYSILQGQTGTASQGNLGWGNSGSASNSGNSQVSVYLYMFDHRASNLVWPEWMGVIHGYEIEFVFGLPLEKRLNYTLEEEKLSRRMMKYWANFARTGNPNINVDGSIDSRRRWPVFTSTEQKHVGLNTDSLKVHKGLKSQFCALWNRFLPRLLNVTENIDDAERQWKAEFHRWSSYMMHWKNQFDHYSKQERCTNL
Procedure: as §3, §4

hMAO-B [3] = target: T1, hMAO-B; test: biochemical; format: biochemical; details: for SI: hMAO-B selectivity: IC50 of hMAO-A divided by IC50 of hMAO-B; for remaining activity at 10 µM: read-out: Residual Activity at 10 µM (%) hMAO-B
Procedure: as §3, §4

HL-60 cells = test: Cytotoxicity, CCK-8 cell viability, HL-60; format: cell-based, human; details: cancer cell line, up to 50 µM, 24 h
Source text: as §1, §2

BACE1 = target: T4, BACE1 (Homo sapiens, UniProt P56817); test: BACE1 inhibition (fluorescent activity detection kit); format: biochemical; details: read-out: Residual Activity at 10 µM (%) BACE1
T4 construct: purchased Sigma-Aldrich
T4 sequence (P56817 46-501): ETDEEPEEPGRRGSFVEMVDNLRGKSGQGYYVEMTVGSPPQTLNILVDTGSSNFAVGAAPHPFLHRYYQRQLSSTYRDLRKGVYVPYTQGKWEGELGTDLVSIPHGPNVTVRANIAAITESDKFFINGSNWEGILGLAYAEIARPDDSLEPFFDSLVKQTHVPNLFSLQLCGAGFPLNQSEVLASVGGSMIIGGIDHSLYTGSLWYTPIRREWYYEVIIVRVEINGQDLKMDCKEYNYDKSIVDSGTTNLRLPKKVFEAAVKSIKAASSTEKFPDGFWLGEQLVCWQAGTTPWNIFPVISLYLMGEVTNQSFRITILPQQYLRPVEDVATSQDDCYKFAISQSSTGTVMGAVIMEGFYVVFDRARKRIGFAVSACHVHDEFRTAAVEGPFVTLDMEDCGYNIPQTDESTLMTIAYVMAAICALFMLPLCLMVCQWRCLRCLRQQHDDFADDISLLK

hMAO-A [4] = target: T5, hMAO-A (Homo sapiens, UniProt P21397); test: biochemical; details: for remaining activity at 10 µM: read-out: Residual Activity at 10 µM (%) hMAO-A
T5 construct: purchased Sigma-Aldrich
T5 sequence (P21397 1-527): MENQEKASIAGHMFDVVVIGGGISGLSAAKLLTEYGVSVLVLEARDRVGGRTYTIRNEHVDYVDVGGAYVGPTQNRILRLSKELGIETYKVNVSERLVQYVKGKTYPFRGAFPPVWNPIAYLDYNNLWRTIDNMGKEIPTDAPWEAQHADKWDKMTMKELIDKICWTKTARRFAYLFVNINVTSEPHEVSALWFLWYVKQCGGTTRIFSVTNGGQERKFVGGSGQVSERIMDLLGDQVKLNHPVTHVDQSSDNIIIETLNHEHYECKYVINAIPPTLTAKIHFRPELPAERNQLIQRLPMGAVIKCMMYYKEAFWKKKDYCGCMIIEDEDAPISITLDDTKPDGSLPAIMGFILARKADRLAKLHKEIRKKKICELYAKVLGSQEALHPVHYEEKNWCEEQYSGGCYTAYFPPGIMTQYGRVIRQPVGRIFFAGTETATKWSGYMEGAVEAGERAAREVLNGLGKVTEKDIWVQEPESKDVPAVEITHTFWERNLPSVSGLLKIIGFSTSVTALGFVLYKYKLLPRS
Procedure: as §3
hMAO-A and -B activities were determined using a continuous spectrophotometric method, as described previously. […] AChE and BChE activities were assayed as described by Ellman et al., with slight modification. Reactions were performed using AChE and BChE in the 0.5 mL reaction mixtures including 0.5 mM substrate (ATCI and BTCI, respectively) and color reagent (DTNB). […] Reaction rates are expressed as changes in absorbance per min.. Inhibitory activities of AChE and BChE were measured after preincubating enzyme with inhibitors for 15 min before adding DTNB and each substrate.
Inhibitory types and Ki values were determined using Lineweaver-Burk plots and secondary plots of their slopes, respectively.

MDCK cells = test: Cytotoxicity, CCK-8 cell viability, MDCK; format: cell-based, canine; details: normal cell line, up to 50 µM, 24 h
Source text: as §1, §2

hMAO-B [5] = target: T1, hMAO-B; test: Reversibility of hMAO-B inhibition by dialysis; format: biochemical; details: for Reversibility of hMAO-B inhibition: dialysis; for Relative activity dialyzed (AD), hMAO-B: inhibitor at ~2 times IC50, after dialysis; for Relative activity undialyzed (AU), hMAO-B: inhibitor at ~2 times IC50, before dialysis
Procedure: (§5) After preincubating compounds or reference inhibitors with hMAO-A and hMAO-B, residual activities for undialyzed and dialyzed samples were measured. Relative values for undialyzed (AU) and dialyzed (AD) activities were then calculated and compared with non-inhibitor treated controls. Reversibilities were determined by comparing the AU and AD values of inhibitors with those of references.

hMAO-A [6] = target: T5, hMAO-A; test: Kinetics of hMAO-A inhibition (Lineweaver-Burk and secondary plots); format: biochemical
Procedure: The kinetics of MAO-A inhibition by 13 was also investigated as above, except at 0.0075–0.12 mM of substrate concentrations. Inhibitory types and Ki values were determined using Lineweaver-Burk plots and secondary plots of their slopes, respectively.

hMAO-A [7] = target: T5, hMAO-A; test: Reversibility of hMAO-A inhibition by dialysis; format: biochemical
Procedure: as §5

Row | Structure (SMILES) | Toxicity to SH-SY5Y cells (SH-SY5Y cells) | Inhibition type hMAO-B (hMAO-B [2]) | Ki (hMAO-B [2]) | remaining activity at 10 µM (BChE) [%] | remaining activity at 10 µM (AChE) [%] | IC50 (hMAO-B [3]) [µM] | SI (hMAO-B [3]) | remaining activity at 10 µM (hMAO-B [3]) [%] | Effect on viability of HL-60 cells (HL-60 cells) | remaining activity at 10 µM (BACE1) [%] | IC50 (hMAO-A [4]) [µM] | remaining activity at 10 µM (hMAO-A [4]) [%] | Effect on viability of MDCK cells (MDCK cells) | Reversibility of hMAO-B inhibition (hMAO-B [5]) | Relative activity dialyzed (AD), hMAO-B (hMAO-B [5]) [%] | Relative activity undialyzed (AU), hMAO-B (hMAO-B [5]) [%] | further results
1 | COc1ccc2c(c1)OC1c3ccc(O)cc3OCC21 (stereo not drawn) [Compound 8, 3-hydroxy-9-methoxypterocarpan] | moderate toxicity | competitive inhibitor | 0.197 ± 0.004 µM | 98.4 ± 1 | 80.6 ± 2.62 | 0.45 ± 0.032 | 44.2 | 4.17 ± 0.84 | non-toxicity; also recorded: no effects on the viabilities | 111.4 ± 0.52 | 19.9 ± 0.85 | 64.18 ± 0.53 | non-toxicity; also recorded: no effects on the viabilities | reversible inhibitor | 72.7 | 29.8 | viability at 24 h, 30 µM ([1]; SH-SY5Y cells): 74%; times higher hMAO-B inhibitory activity than 13 (hMAO-B [3]; 3-OH of 8 versus 3-OCH3 of 13): 1.6 times; times higher hMAO-B inhibition than maackiain (hMAO-B [3]; versus maackiain IC50 of ref 36): 1.5 times
2 | COc1ccc2c(c1)O[C@H]1c3ccc(OC)cc3OC[C@@H]21 [Compound 13, 3,9-dimethoxypterocarpan] | moderate toxicity | competitive inhibitor | 0.21 µM and 0.212 µM | 88.5 ± 1.96 | 81 ± 2.44 | 0.72 ± 0.028 | 2.07 | 4.05 ± 1.91 | non-toxicity; also recorded: no effects on the viabilities | 101.48 ± 0.01 | 1.49 ± 0.021 | 11.6 ± 2.6 | non-toxicity; also recorded: no effects on the viabilities | reversible inhibitor | 73.5 | 32.0 | viability at 24 h, 30 µM ([1]; SH-SY5Y neuroblastoma cells): 71.1%; times higher hMAO-B inhibitory activity than 12 (hMAO-B [3]; 9-OCH3 of 13 versus 8,9-methylenedioxy of 12): 4.7 times; Inhibition type hMAO-A (hMAO-A [6]; Lineweaver-Burk plots): competitive inhibitor; Ki (hMAO-A [6]; secondary plots of Lineweaver-Burk slopes): 0.617 ± 0.023 µM; Reversibility of hMAO-A inhibition (hMAO-A [7]; dialysis): reversible inhibitor; Relative activity dialyzed (AD), hMAO-A (hMAO-A [7]; inhibitor at ~2 times IC50, after dialysis): 75.8%; Relative activity undialyzed (AU), hMAO-A (hMAO-A [7]; inhibitor at ~2 times IC50, before dialysis): 25.4%
